≈ marks a conversion by molar mass, not a printed value.
Tests used:
Assay in all cases: In vitro MIC, 2010 surveillance isolates
MSSA = format: cell-based
MRSA = format: cell-based
MS CoNS = format: cell-based, Coagulase-Negative Staphylococcus
MR CoNS = format: cell-based, Coagulase-Negative Staphylococcus
E. faecalis VS = format: cell-based
E. faecalis VNS = format: cell-based
E. faecium VS = format: cell-based
E. faecium VNS = format: cell-based

## CN[C@H](CC(C)C)C(=O)N[C@H]1C(=O)N[C@@H](CC(N)=O)C(=O)N[C@H]2C(=O)N[C@H]3C(=O)N[C@H](C(=O)N[C@H](C(=O)O)c4cc(O)cc(O)c4-c4cc3ccc4O)[C@H](O)c3ccc(c(Cl)c3)Oc3cc2cc(c3O[C@@H]2O[C@H](CO)[C@@H](O)[C@H](O)[C@H]2O[C@H]2C[C@](C)(N)[C@H](O)[C@H](C)O2)Oc2ccc(cc2Cl)[C@H]1O [Vancomycin]
MSSA; Asia/Pac, Eucast breakpoints
  % R (resistance): 0%
MSSA; Asia/Pac, N=641
  MIC90: 1 µg/mL (≈ 0.69 µM)
MSSA; Europe, Eucast breakpoints
  % R (resistance): 0%
MSSA; Europe, N=2109
  MIC90: 1 µg/mL (≈ 0.69 µM)
MSSA; L. Amer, CLSI breakpoints
  % R (resistance): 0%
MSSA; L. Amer, N=590
  MIC90: 1 µg/mL (≈ 0.69 µM)
MSSA; N America, CLSI breakpoints
  % R (resistance): 0%
MSSA; N America, N=2373
  MIC90: 1 µg/mL (≈ 0.69 µM)
MRSA; Asia/Pac, Eucast breakpoints
  % R (resistance): 0%
MRSA; Asia/Pac, N=428
  MIC90: 1 µg/mL (≈ 0.69 µM)
MRSA; Europe, Eucast breakpoints
  % R (resistance): 0%
MRSA; Europe, N=750
  MIC90: 1 µg/mL (≈ 0.69 µM)
MRSA; L. Amer, CLSI breakpoints
  % R (resistance): 0%
MRSA; L. Amer, N=506
  MIC90: 1 µg/mL (≈ 0.69 µM)
MRSA; N America, CLSI breakpoints
  % R (resistance): 0%
MRSA; N America, N=2508
  MIC90: 1 µg/mL (≈ 0.69 µM)
MS CoNS; Asia/Pac, Eucast breakpoints
  % R (resistance): 0%
MS CoNS; Asia/Pac, N=18
  MIC90: 2 µg/mL (≈ 1.38 µM)
MS CoNS; Europe, Eucast breakpoints
  % R (resistance): 1.1%
MS CoNS; Europe, N=185
  MIC90: 2 µg/mL (≈ 1.38 µM)
MS CoNS; L. Amer, CLSI breakpoints
  % R (resistance): 0%
MS CoNS; L. Amer, N=67
  MIC90: 2 µg/mL (≈ 1.38 µM)
MS CoNS; N America, CLSI breakpoints
  % R (resistance): 0%
MS CoNS; N America, N=191
  MIC90: 2 µg/mL (≈ 1.38 µM)
MR CoNS; Asia/Pac, Eucast breakpoints
  % R (resistance): 1.3%
MR CoNS; Asia/Pac, N=77
  MIC90: 2 µg/mL (≈ 1.38 µM)
MR CoNS; Europe, Eucast breakpoints
  % R (resistance): 0.4%
MR CoNS; Europe, N=510
  MIC90: 2 µg/mL (≈ 1.38 µM)
MR CoNS; L. Amer, CLSI breakpoints
  % R (resistance): 0%
MR CoNS; L. Amer, N=301
  MIC90: 2 µg/mL (≈ 1.38 µM)
MR CoNS; N America, CLSI breakpoints
  % R (resistance): 0%
MR CoNS; N America, N=461
  MIC90: 2 µg/mL (≈ 1.38 µM)
E. faecalis VS; Asia/Pac, Eucast breakpoints
  % R (resistance): 0%
E. faecalis VS; Asia/Pac, N=214
  MIC90: 2 µg/mL (≈ 1.38 µM)
E. faecalis VS; Europe, Eucast breakpoints
  % R (resistance): 0%
E. faecalis VS; Europe, N=669
  MIC90: 2 µg/mL (≈ 1.38 µM)
E. faecalis VS; L. Amer, CLSI breakpoints
  % R (resistance): 0%
E. faecalis VS; L. Amer, N=290
  MIC90: 2 µg/mL (≈ 1.38 µM)
E. faecalis VS; N America, CLSI breakpoints
  % R (resistance): 0%
E. faecalis VS; N America, N=863
  MIC90: 2 µg/mL (≈ 1.38 µM)
E. faecalis VNS; Asia/Pac, N=1
  range of MICs (N <10, shown instead of MIC90): >16
E. faecalis VNS; Europe, Eucast breakpoints
  % R (resistance): 100%
E. faecalis VNS; Europe, N=8
  range of MICs (N <10, shown instead of MIC90): > 16
E. faecalis VNS; L. Amer, CLSI breakpoints
  % R (resistance): 100%
E. faecalis VNS; L. Amer, N=7
  range of MICs (N <10, shown instead of MIC90): > 16
E. faecalis VNS; N America, CLSI breakpoints
  % R (resistance): 92.1%
E. faecalis VNS; N America, N=38
  MIC90: > 16 µg/mL
E. faecium VS; Asia/Pac, Eucast breakpoints
  % R (resistance): 0%
E. faecium VS; Asia/Pac, N=106
  MIC90: 1 µg/mL (≈ 0.69 µM)
E. faecium VS; Europe, Eucast breakpoints
  % R (resistance): 0%
E. faecium VS; Europe, N=303
  MIC90: 1 µg/mL (≈ 0.69 µM)
E. faecium VS; L. Amer, CLSI breakpoints
  % R (resistance): 0%
E. faecium VS; L. Amer, N=51
  MIC90: 1 µg/mL (≈ 0.69 µM)
E. faecium VS; N America, CLSI breakpoints
  % R (resistance): 0%
E. faecium VS; N America, N=115
  MIC90: 1 µg/mL (≈ 0.69 µM)
E. faecium VNS; Asia/Pac, Eucast breakpoints
  % R (resistance): 100%
E. faecium VNS; Asia/Pac, N=24
  MIC90: > 16 µg/mL
E. faecium VNS; Europe, Eucast breakpoints
  % R (resistance): 100%
E. faecium VNS; Europe, N=71
  MIC90: > 16 µg/mL
E. faecium VNS; L. Amer, CLSI breakpoints
  % R (resistance): 100%
E. faecium VNS; L. Amer, N=41
  MIC90: > 16 µg/mL
E. faecium VNS; N America, CLSI breakpoints
  % R (resistance): 99.4%
E. faecium VNS; N America, N=478
  MIC90: > 16 µg/mL
